Data on nine compounds can be found in patent EP2792360A1, “(1aR,12bS)-8-cyclohexyl-11-fluoro-N-((1-methylcyclopropyl)sulfonyl)-1a-((3-methyl-3,8-diazabicyclo[3.2.1]oct-8-yl)carbonyl)-1,1a,2,2b-tetrahydrocyclopropa[d]indolo[2,1-a][2]benzazepine-5-carboxamide for use in treating HCV” (IP Gesellschaft für Management mbH, priority 2013, dated 2014).

A short description of series [1]: Solid form stability of forms of compound of formula (IV) (Temperature / Humidity Controlled XRPD, storage, suspension). It is filed as physicochemical. As to the method: The term"XRPD" denotes the analytical method of X-Ray Powder Diffraction. XRPD patterns were recorded at ambient conditions in transmission geometry with a STOE STADI P diffractometer (Cu K alpha radiation source, primary monochromator, position sensitive detector, angular range 3° to 42° 2Theta, approximately 60 minutes total measurement time). The repeatability of the angular values is in the range of 2Theta ±0.2°. The term "approximately" given in combination with an angular value denotes the repeatability which is in the range of 2Theta ±0.2°. The samples were prepared and analyzed without further processing (e.g. grinding or sieving) of the substance. The relative XRPD peak intensity is dependent upon many factors such as structure factor, temperature factor, crystallinity, polarization factor, multiplicity, and Lorentz factor. Relative intensities may vary considerably from one measurement to another due to preferred orientation effects. Humidity Controlled XRPD analyses were performed in reflection geometry with a Siemens D5000 Diffractometer (Cu radiation source, Ni K beta filter, Scintillation detector, angular range 3° to 42° 2Theta, approximately 180 minutes total measurement time per humidity level). The diffractometer is equipped with an MRI (Materials Research Instruments) humidity chamber. The humidity within the chamber is adjusted with an ANSYCO humidity controller (SYCOS H-HOT). For single crystal structure analysis a single crystal sample was mounted in a nylon loop on a goniometer and measured at ambient conditions. Alternatively, the crystal was cooled in a nitrogen stream during measurement. Data were collected on a GEMINI R Ultra diffractometer from Oxford Diffraction. Cu-radiation of 1.54 A wavelength was used for data collection. Data was processed with the Oxford Diffraction CRYSALIS software. The crystal structure was solved and refined with standard crystallographic software. In this case the program ShelXTL from Bruker AXS (Karlsruhe) was used. The abbreviation "FWHM" denotes the full width at half maximum, which is a width of a peak (e.g. appearing in a spectrum, particularly in an XRPD pattern) at its half height. The term "sharp Bragg diffraction peak" in connection with X-ray diffraction patterns denotes a peak which is observed if Bragg' s law of diffraction is fulfilled. Generally, the FWHM of a sharp Bragg diffraction peak is less than 0.5° 2-theta. The term "amorphous halo" in connection with X-ray diffraction patterns denotes an approximately bell- shaped diffraction maximum in the X-ray powder diffraction pattern of an amorphous material. The FWHM of an amorphous halo is on principle larger than the FWHM of the peak of crystalline material. The terms "FTIR" and "IR" denote the analytical method of infrared spectroscopy. The IR-spectra of the samples are recorded as film of a Nujol suspension consisting of approx. 5 mg of sample and approx. 5 mg of Nujol (mineral oil) between two sodium chloride plates (cross section 13 mm) in transmittance with a FTIR- spectrometer. The spectra were recorded in spectral range between 4000 cm"1 and 600 cm"1, resolution 2 cm"1, and 300 coadded scans on a Magna 860 (thermo/Nicolet) equipped with a DTGS detector. The term "Raman" denotes the analytical method of Raman spectroscopy. For recording Raman spectra, the samples were spread on a glass slide. Raman spectra were recorded in the range of 150-3800 cm"1 with an ARAMIS (HoribaJobinYvon) Raman microscope equipped with a Peltier cooled CCD detector, at excitation of 633 nm, a 1200 1/mm grating, a x50 objective and with 3 exposures of 3s, or 7s for weak Raman scatterers. The term "DSC" denotes the analytical method of Differential Scanning Calorimetry. DSC thermograms were recorded using a Mettler-Toledo™ differential scanning calorimeter DSC820, DSC821 or DSC1 with a FRS05 sensor. […]

Series [2] can be described thus: Relative stability (non-competitive and competitive interconversion) experiments of crystal forms of Compound 1. The note with it: pXRD, DSC, 1H-NMR.
Method: For the non-competitive experiments, only a single starting crystal form was used to study the potential conversion to another more stabb form. […] The slurry was cooled to 25-30 °C, filtered, suction dried for 1 hour and dried in a vacuum oven at 70 °C and 8 kPa absolute pressure for 12 hours. […] The slurry was cooled to 25-30 °C, filtered, suction dried for 1 hour and dried in a vacuum oven at 70 °C and 8 kPa absolute pressure for 12 hours. […] The slurry was cooled to 25-30 °C, filtered, suction dried for 1 hour and dried in a vacuum oven at 70 °C and 8 kPa absolute pressure for 12 hours.
The nature of series [3]: VT-XRPD / VH-XRPD / drying stability of HCl salt forms of Formula V. The note with it: for stability of the salt form on drying under vacuum at room temperature: ca. 16 hours, XRPD.
Method: The humidity was controlled by mixing streams of dry and wet nitrogen, with a total flow rate of 200 mL.min-1 The relative humidity was measured by a calibrated Rotronic probe (dynamic range of 1.0 - 100%RH), located near the sample. The weight change (mass relaxation) of the sample as a function of %RH was constantly monitored by the microbalance (accuracy ±0.005 mg). Approximately 5 - 20 mg of sample was placed in a tared mesh stainless steel basket under ambient conditions. […] A moisture sorption isotherm was performed as outlined below (2 scans giving 1 complete cycle). […] Data analysis was undertaken in Microsoft Excel using DVS Analysis Suite v6.0.0.7. […] XRPD: X-Ray Powder Diffraction patterns were collected either on a Bruker AXS C2 GADDS diffractometer or a Bruker AXS D8 diffractometer. […] The beam divergence, i.e. the effective size of the X-ray beam on the sample, was approximately 4 mm. […] In a typical experiment, the sampleis exposed to the X-ray beam for 120 seconds. The software used for data collectionwas GADDS for WNT 4.1.16 and the data were analyzed and presented using Diffrac PlusEVA vl 1.0.0.2 or vl3.0.0.2. Ambient conditions: Samples run under ambient conditions were prepared as flat plate specimens using powder as received without grinding. Approximately 1 - 2 mg of the sample was lightly pressed on aglass slide to obtain a flat surface. Non-ambient conditions: Samples run under non-ambient conditions were mounted on a silicon wafer with heat-conducting compound. The sample was then heated to the appropriate temperatureat 10.C.min_1and subsequently held isothermally for 1 minute before data collection was initiated. On a Bruker D8 diffractometer, the following parameters were used: Cu Ka radiation (40 kV, 40 mA), θ - 20 goniometer, and divergence of V4 and receiving slits, a Ge monochromator and a Lynxeye detector. […] The software used for data collection was Diffrac Plus XRD Commander v2.5.0 and the data were analyzed and presented using Diffrac Plus EVA vl 1.0.0.2 or vl3.0.0.2. Samples were run under ambient conditions as flat plate specimens using powder as received. The sample was gently packed into a cavity cut into polished, zero-background (510) silicon wafer. The sample was rotated in its own plane during analysis. The details of the data collection are: · Angular range: 2 to 42°2Θ, · Step size: 0.05°2Θ, · Collection time: 0.5 s/step.
Series [4] in a line: Characterization of scale-up HCl Pattern 2 (Tables 16-17). It is filed as physicochemical. The note with it: for TGA heat / cool experiments: IC / TGA heat / cool experiments: XRPD: cooled and re-analysed; for solubility thermodynamic: thermodynamic from solid.
Series [5] is described as follows: Polymorphism assessment of HCl Pattern 2 (heat/cool cycles in solvents, XRPD). It is filed as physicochemical. From the text:
. […] Table 18. Results from the polymorph assessment

Series [6] in a line: Gravimetric vapour sorption (GVS) of salts of Formula V. The format is physicochemical.
[7] abbreviates: non-competitive, refluxed in deionized water at about 95 °C for 3 hours, TGA.

Molecules are shown by their SMILES. “Also recorded” adds a separate entry of the source. Where a name gives a salt, the structure may show the parent alone. Read-outs that look alike come from different tables or passages of the source.

For `Cc1onc(-c2ccc(F)cc2)c1COc1ccc(C(=O)N2CCS(=O)(=O)CC2)cn1` [Form A ({drug4a}), (1,1-dioxo-1lambda6-thiomorpholin-4-yl)-{6-[3-(4-fluoro-phenyl)-5-methyl-isoxazol-4-ylmethoxy]-pyridin-3-yl]-methanone], the “thermodynamic stability of the solid form” value in series [1] is “metastable polymorph”. The “solid form changes at elevated temperature” value in series [1] (Temperature Controlled XRPD) was “do not show solid form changes”.
As to `COc1ccc(Cl)c(S(=O)(=O)NC(=O)c2cn3cc(C(F)(F)F)cc(Cl)c3n2)c1` [Form B ({drug1b}), 8-chloro-N-[(2-chloro-5-methoxyphenyl)sulfonyl]-6-(trifluoromethyl)-imidazo[1,2-a]pyridine-2-carboxamide], the “crystal form of the resulting material” value in series [2] (setting [7]) is “Form A”.
Still for that read-out and setting: to `COc1ccc(Cl)c(S(=O)(=O)NC(=O)c2cn3cc(C(F)(F)F)cc(Cl)c3n2)c1` [Form D ({drug1d}), 8-chloro-N-[(2-chloro-5-methoxyphenyl)sulfonyl]-6-(trifluoromethyl)-imidazo[1,2-a]pyridine-2-carboxamide] belongs “Form A”.
On to `Cc1onc(-c2ccc(F)cc2)c1COc1ccc(C(=O)N2CCS(=O)(=O)CC2)cn1` [Form E ({drug4e}), (1,1-dioxo-1lambda6-thiomorpholin-4-yl)-{6-[3-(4-fluoro-phenyl)-5-methyl-isoxazol-4-ylmethoxy]-pyridin-3-yl]-methanone], for which, in series [1], the “humidity at which rapid reconversion into Form B is observed” value is recorded as over 5 rH and the “thermodynamic stability of the solid form” value is recorded as “only limited stability at ambient conditions”.
For `COc1ccc(Cl)c(S(=O)(=O)NC(=O)c2cn3cc(C(F)(F)F)cc(Cl)c3n2)c1` [Form TS ({drug1e}), 8-chloro-N-[(2-chloro-5-methoxyphenyl)sulfonyl]-6-(trifluoromethyl)-imidazo[1,2-a]pyridine-2-carboxamide], the “crystal form of the resulting material” value in series [2] (setting [7]) is given as “Form A”.
`Nc1nc2cc(-c3ccc4ncc(C(=O)N5CCOCC5)n4c3)ccc2o1` [HCl Pattern 1, (6-(2-aminobenzo[d]oxazol-5-yl)imidazo[1,2-a]pyridin-3-yl)(morpholino)methanone]: in series [3], the “stability of the salt form on drying under vacuum at room temperature” value was “partially reverted to the free base”.
Turning to `Nc1nc2cc(-c3ccc4ncc(C(=O)N5CCOCC5)n4c3)ccc2o1` [HCl Pattern 2, (6-(2-aminobenzo[d]oxazol-5-yl)imidazo[1,2-a]pyridin-3-yl)(morpholino)methanone], the KF is 15.2 % water, in series [4] and “corresponding to 4.3 eqs water, assuming 2 eqs Cl” in series [4] (assuming 2 eqs Cl). Moreover, the “TGA heat / cool experiments: IC” value is listed as 1.6 eqsCl in series [4] (Sample heated to 100°C) and 1.7 eqs Cl in series [4] (Sample heated to 140°C). Besides, the “TGA heat / cool experiments: XRPD” value in series [4] (Sample heated to 100°C) and in series [4] (Sample heated to 140°C) was “Partially crystalline HCl Pattern 2” throughout. Also, in series [4] (Sample heated to 210°C), the “TGA heat / cool experiments” value is “Sample heated to 210°C, decomposition observed”. Besides, the “Stability at 40°C/75%RH” value in series [4] (XRPD, 3 weeks storage) is reported as “No significant changes observed by XRPD after 3 weeks storage”. Moreover, the results for the IC in series [4] (as determined) and in series [4] (corrected with 15% w/w water content) were 1.7 eqs Cl (as determined) and 2.0 eqs Cl (corrected with 15% w/w water content), respectively. The “TGA Weight loss” value in series [4] (first step, by 100°C) is reported as 8%; in series [4] (second step, to 140°C) it was 2.3%; in series [4] (third step, to 210°C) it was 8.7%. Moreover, the solubility (thermodynamic) in series [4] (pH 1, simulated gastric fluid, SGF (pH1.0)) is 2800 µg/mL; in series [4] (simulated gastric fluid, 0.1N HCl (pH 0.9)), 3500 µg/mL; in series [4] (Water (pH 1.6)) it was 1600 µg/mL. Besides, in series [4] (scale-up HCl Pattern 2), the “XRPD (air dried)” value is recorded as “New pattern (HCl Pattern 3)”. Besides, in series [4] (scale-up HCl Pattern 2), the “XRPD (vacuum dried)” value is “Crystalline. HCl Pattern 2; also recorded: Slight differences compared to HCl Pattern 2, possibly due to differences in crystallinity”. Moreover, the “XRPD Result” value in series [5] (Solvent DCM (entry -11)), in series [5] (Solvent EtOAc (entry -08)), in series [5] (Solvent EtOH (entry -02)), in series [5] (Solvent IPA (10% water) (entry -06)), in series [5] (Solvent IPA (entry -03)) and in series [5] (Solvent MEK (entry -09)) was “HCl Pattern 2” throughout. In addition, the “XRPD Result” value in series [5] (Solvent MeCN (entry -05)), in series [5] (Solvent MeOH (entry -01)), in series [5] (Solvent Nitromethane (entry -12)), in series [5] (Solvent TBME (entry -10)), in series [5] (Solvent THF (5% water) (entry -07)) and in series [5] (Solvent THF (entry -04)) was “HCl Pattern 2” in each case. For the same compound, the “form by XRPD after polymorph assessment” value in series [5] (freeze-dried material, 20 vols solvent, heat/cool cycles RT to 50°C for three days) is recorded as “known form HCl Pattern 2”. For the same compound, the VH-XRPD entry was “No change was noted between 45 and 80%RH” in series [3] (between 45 and 80%RH); “The material starts to change below 25%RH, with full conversion to HCl Pattern 3 at 0.5%RH” in series [3] (lowering humidity, below 25%RH to 0.5%RH); “At 13%RH the material starts to revert back to HCl Pattern 2 with complete conversion by 45%RH” in series [3] (raising humidity, 13%RH to 45%RH). Further, in series [3] (complete conversion to HCl Pattern 3 at 0.5%RH, reverted completely by 45%RH), the “relative humidity to which the form is stable (VH-XRPD)” value was 14 %RH. Further, the “heating temperature for conversion to a new pattern (VT-XRPD)” value in series [3] (reverted to partially crystalline HCl Pattern 2 upon cooling in air) was “above 80 °C”. For the same compound, the “VT-XRPD Heating to 100°C, then cool” value in series [3] (scale-up HCl Pattern 2) is “Conversion to a new pattern at 80 °C (HCl 3), which returns to less crystalline HCl 2 upon cooling”. Besides, in series [3] (scale-up HCl Pattern 2), the “VT-XRPD Heating to 140°C” value was “Conversion to HCl Pattern 3 at 80 °C that remains unchanged to 120°C, before losing crystallinity at higher temperature”. In addition, in series [6] (25°C, equating to a tri-hydrate), the “uptake at the end of the analysis (GVS)” value came out at 10.6 wt%. Besides, in series [6] (at the end of the experiment), the “GVS: XRPD after the experiment” value was “no significant changes noted by XRPD”. Also, the values for the GVS entry in series [6] (below 30%RH) and in series [6] (between 30-40%RH) were “Further reversible weight toss below 30%RH may indicate lower stoichiometry hydrate” and “Reversible dehydration observed between 30-40%RH”, respectively. In addition, in series [6] (between 40-90%RH), the “GVS Reversible uptake” value is given as “Reversible uptake of ca. 6 wt% between 40-90%RH”. Further, the “relative humidity to which the form appeared to be stable (GVS)” value in series [6] (dehydration below 30%, rehydration by 40%) turned out to be 30 %RH.
On to `Nc1nc2cc(-c3ccc4ncc(C(=O)N5CCOCC5)n4c3)ccc2o1` [HCl Pattern 3, (6-(2-aminobenzo[d]oxazol-5-yl)imidazo[1,2-a]pyridin-3-yl)(morpholino)methanone], for which the “stability of the salt form on drying under vacuum at room temperature” value in series [3] is listed as “unstable salt form”.
In the case of `COc1ccc(Cl)c(S(=O)(=O)NC(=O)c2cn3cc(C(F)(F)F)cc(Cl)c3n2)c1` [mixed Forms A and B, 8-chloro-N-[(2-chloro-5-methoxyphenyl)sulfonyl]-6-(trifluoromethyl)-imidazo[1,2-a]pyridine-2-carboxamide], the “crystal form of the resulting material” value in series [2] (slurry in deionized water stirred at 25 °C for about 168 hours) is listed as “Form A”.
